{"source": "ChEMBL document CHEMBL4665893", "about": "“Scalable Synthesis, In Vitro cccDNA Reduction, and In Vivo Antihepatitis B Virus Activity of a Phosphonomethoxydeoxythreosyl Adenine Prodrug” (J Med Chem, 2020)", "key": {"[1]": {"experiment": "Toxicity in C57BL/6 female mouse assessed as reduction in hematocrit level at 60 mg/kg, po for 14 days by hematology analysis", "format": "organism-based", "settings": "in vivo, 336 h, time 14 day"}, "[2]": {"tested_on": "Hepatitis B virus", "experiment": "Antiviral activity against adenovirus AdH294-WT harboring wild-type HBV genotype D accession #V01460 infected in human HepG2 cells assessed as reduction in viral replicative intermediate DNA level at 370 nM incubated for 5 days by Southern blot analysis (reference value: 100%)", "format": "functional", "design": "scale not given: the % may be the effect or the level left", "settings": "time 5 day"}, "[3]": {"experiment": "Toxicity in HBV infected hydrodynamic injection C57BL/6 mouse model assessed as effect on body weight at 0.6 to 60 mg/kg, po QD for 6 days", "format": "organism-based", "settings": "in vivo, 144 h, dose 0.6-60 mg/kg, time 6 day"}, "[4]": {"tested_on": "Hepatitis B virus", "experiment": "Antiviral activity against ETV-resistant and adenovirus AdH294-7LR harboring wild-type HBV infected in human HepG2 cells assessed as viral replicative intermediate DNA level at 40 nM incubated for 5 days by Southern blot analysis (reference value: 100%)", "format": "functional", "settings": "time 5 day"}, "[5]": {"experiment": "Toxicity in C57BL/6 female mouse assessed as reduction in mean corpuscular volume level at 60 mg/kg, po for 14 days by hematology analysis", "format": "organism-based", "settings": "in vivo, 336 h, time 14 day"}, "[6]": {"experiment": "Toxicity in C57BL/6 male mouse assessed as increase in LDL-C level at 60 mg/kg, po for 14 days", "format": "organism-based", "settings": "in vivo, 336 h, time 14 day"}, "[7]": {"experiment": "Toxicity in C57BL/6 male mouse assessed as reduction in erythrocytes level at 60 mg/kg, po for 14 days by hematology analysis", "format": "organism-based", "settings": "in vivo, 336 h, time 14 day"}, "[8]": {"experiment": "Toxicity in C57BL/6 mouse assessed as induction of body weight loss at 60 mg/kg, po for 14 days relative to control", "format": "organism-based", "settings": "in vivo, 336 h, time 14 day"}, "[9]": {"experiment": "Plasma concentration in C57BL/6 mouse at 6 mg/kg, po administered as single dose after 0.25 to 24 hrs by LC/MS/MS analysis", "format": "ADME, organism-based", "settings": "in vivo, time 0.25-24 hrs"}, "[10]": {"experiment": "Toxicity in C57BL/6 male mouse assessed as effect on organ weight level at 60 mg/kg, po for 14 days", "format": "organism-based", "settings": "in vivo, 336 h, time 14 day"}, "[11]": {"tested_on": "Hepatitis B virus", "experiment": "Antiviral activity against adenovirus AdH294-WT harboring wild-type HBV genotype D accession #V01460 infected in human HepG2 cells assessed as reduction in viral replicative intermediate DNA level at 10000 nM incubated for 5 days by Southern blot analysis (reference value: 100%)", "format": "functional", "design": "scale not given: the % may be the effect or the level left", "settings": "time 5 day"}, "[12]": {"experiment": "Genotoxicity in Salmonella typhimurium TA1535 assessed as increase in number of spontaneous revertants colonies by Ames test", "format": "toxicity", "settings": "salmonella enterica subsp. enterica serovar typhimurium, 1 µM"}, "[13]": {"experiment": "Toxicity in C57BL/6 female mouse assessed as effect on clinical chemistry level at 60 mg/kg, po for 14 days", "format": "organism-based", "settings": "in vivo, 336 h, time 14 day"}, "[14]": {"tested_on": "Hepatitis B virus", "experiment": "Antiviral activity against HBV infected hydrodynamic injection C57BL/6 mouse model assessed as reduction in serum HBV DNA level at 0.6 to 60 mg/kg, po QD for 6 days by qPCR analysis", "format": "functional, organism-based", "settings": "dose mg/kg 0.6-60, time 6.0 day"}, "[15]": {"experiment": "Toxicity in C57BL/6 female mouse assessed as reduction in erythrocytes level at 60 mg/kg, po for 14 days by hematology analysis", "format": "organism-based", "settings": "in vivo, 336 h, time 14 day"}, "[16]": {"experiment": "Toxicity in C57BL/6 male mouse assessed as reduction in lymphocytes level at 60 mg/kg, po for 14 days by hematology analysis", "format": "organism-based", "settings": "in vivo, 336 h, time 14 day"}, "[17]": {"tested_on": "Hepatitis B virus", "experiment": "Antiviral activity against ETV-resistant and adenovirus AdH294-7LR harboring wild-type HBV infected in human HepG2 cells assessed as viral replicative intermediate DNA level at 370 nM incubated for 5 days by Southern blot analysis (reference value: 100%)", "format": "functional", "settings": "time 5 day"}, "[18]": {"experiment": "Toxicity in C57BL/6 mouse assessed as induction of mortality at 60 mg/kg, po for 14 days", "format": "organism-based", "settings": "in vivo, 336 h, time 14 day"}, "[19]": {"tested_on": "Hepatitis B virus", "experiment": "Antiviral activity against ETV-resistant and adenovirus AdH294-7LR harboring wild-type HBV infected in human HepG2 cells assessed as viral replicative intermediate DNA level at 120 nM incubated for 5 days by Southern blot analysis (reference value: 100%)", "format": "functional", "settings": "time 5 day"}, "[20]": {"experiment": "Toxicity in C57BL/6 female mouse assessed as effect on organ weight level at 60 mg/kg, po for 14 days", "format": "organism-based", "settings": "in vivo, 336 h, time 14 day"}, "[21]": {"experiment": "Toxicity in C57BL/6 male mouse assessed as effect on clinical chemistry level at 60 mg/kg, po for 14 days", "format": "organism-based", "settings": "in vivo, 336 h, time 14 day"}, "[22]": {"experiment": "Toxicity in C57BL/6 female mouse assessed as increase in neutrophils level at 60 mg/kg, po for 14 days by hematology analysis", "format": "organism-based", "settings": "in vivo, 336 h, time 14 day"}, "[23]": {"experiment": "Toxicity in C57BL/6 male mouse assessed as reduction in hematocrit level at 60 mg/kg, po for 14 days by hematology analysis", "format": "organism-based", "settings": "in vivo, 336 h, time 14 day"}, "[24]": {"experiment": "Selectivity index, […] against HBV infected in human HepDE19 cells to CC50 for toxicity in human HepDE19 cells", "format": "cell-based", "settings": "read-out: Ratio CC50/IC50"}, "[25]": {"tested_on": "Hepatitis B virus", "experiment": "Antiviral activity against adenovirus AdH294-WT harboring wild-type HBV genotype D accession #V01460 infected in human HepG2 cells assessed as reduction in viral replicative intermediate DNA level at 4 nM incubated for 5 days by Southern blot analysis (reference value: 100%)", "format": "functional", "design": "scale not given: the % may be the effect or the level left", "settings": "time 5 day"}, "[26]": {"tested_on": "Hepatitis B virus", "experiment": "Antiviral activity against adenovirus AdH294-WT harboring wild-type HBV genotype D accession #V01460 infected in human HepG2 cells assessed as reduction in viral replicative intermediate DNA level at 3300 nM incubated for 5 days by Southern blot analysis (reference value: 100%)", "format": "functional", "design": "scale not given: the % may be the effect or the level left", "settings": "time 5 day"}}, "note": "Activity calls are given as the source filed them. The calls are words filed in the database; no cut-off is given here.", "data": [{"smiles": "CC(C)CCOC(=O)C[C@H](NP(=O)(CO[C@H]1CO[C@@H](n2cnc3c(N)ncnc32)C1)Oc1ccccc1)C(=O)OCCC(C)C", "note": "(mixture of isomers)", "values": [{"measurement": "Activity", "setting": "[1]", "value": "Non-Toxic"}, {"measurement": "Activity", "setting": "[2]", "value": 1.8, "unit": "%"}, {"measurement": "Activity", "setting": "[3]", "value": "Non-Toxic"}, {"measurement": "Activity", "setting": "[4]", "value": 59.1, "unit": "%"}, {"measurement": "Activity", "setting": "[5]", "value": "Non-Toxic"}, {"measurement": "Activity", "setting": "[6]", "value": "Toxic"}, {"measurement": "Activity", "setting": "[7]", "value": "Toxic"}, {"measurement": "Activity", "setting": "[8]", "value": 4, "unit": "%"}, {"measurement": "Cp", "setting": "[9]", "value": "< 1.01", "unit": "ng/mL"}, {"measurement": "Activity", "setting": "[10]", "value": "Non-Toxic"}, {"measurement": "Activity", "setting": "[11]", "value": 0, "unit": "%"}, {"measurement": "Activity", "setting": "[12]", "value": "Non-Toxic"}, {"measurement": "Activity", "setting": "[13]", "value": "Non-Toxic"}, {"measurement": "Activity", "setting": "[14]", "value": "Active"}, {"measurement": "Activity", "setting": "[15]", "value": "Non-Toxic"}, {"measurement": "Activity", "setting": "[16]", "value": "Toxic"}, {"measurement": "Activity", "setting": "[17]", "value": 20.2, "unit": "%"}, {"measurement": "Activity", "setting": "[18]", "value": "Non-Toxic"}, {"measurement": "Activity", "setting": "[19]", "value": 38.5, "unit": "%"}, {"measurement": "Activity", "setting": "[20]", "value": "Non-Toxic"}, {"measurement": "Activity", "setting": "[21]", "value": "Non-Toxic"}, {"measurement": "Activity", "setting": "[22]", "value": "Non-Toxic"}, {"measurement": "Activity", "setting": "[23]", "value": "Toxic"}, {"measurement": "selectivity ratio", "setting": "[24]", "value": 37}, {"measurement": "Activity", "setting": "[25]", "value": 39.1, "unit": "%"}, {"measurement": "Activity", "setting": "[26]", "value": 0, "unit": "%"}]}]}
